# In US5739115A, “Sulfated maltooligosaccharides with heparin-like properties” (Glycomed Incorporated, priority 1994, dated 1998):
# Legend:
# [1] = test system: pericyte and smooth muscle cell; conditions: literature; result in words; cited from earlier work
# [2] = test system: vascular proliferation; conditions: literature; result in words; cited from earlier work
# [3] = test system: bFGF; test: Binding of RO-12 UC cells to bFGF coated micro-titer wells; assay type: cell-based, human; conditions: result in words, FIGS. 1 and 3
# Procedure: Bound cells are readily quantitated as total protein.
# The assay was run as follows: Fifty microliters of 10 ug/ml human recombinant bFGF was added to wells of a 96-well tissue culture plate and incubated overnight at 4° C. The wells were aspirated with PBS to remove any unbound bFGF, rinsed twice with PBS, and subsequently incubated with PBS containing 5% (v/v) fetal bovine serum for 1 hour at room temperature. RO-12 UC cells were suspended at a density of 3×10^6 cells/ml in PBS containing 5% fetal bovine serum. To this mixture was added the desired amount of sulfated composition, or heparin. […] Next, 100 ul of the cell suspension was immediately added to the microtiter wells, and incubated for 5 minutes, after which the wells were washed 3 times with PBS. Finally, the amount of cell protein bound to the wells was determined by dissolving the bound cells in 20 ul of 5% SDS and measuring the protein. concentration of the cell lysates. BSA was used as the standard.
# [4] = test system: Bovine smooth muscle cells (SMC); test: Inhibition of smooth muscle cell (SMC) growth; assay type: cell-based; conditions: for inhibition of SMC growth (anti-proliferative activity): relative to heparin
# Excerpt: Maltotetraose, maltopentaose and maltohexaose were sulfated as described in Examples 1-3, and assayed for their effects on smooth muscle cell proliferation using a standard assay for this activity. A convenient assay, in detail, is as follows:
# Solutions to be tested are made up in DMEM medium containing 10% fetal calf serum and penicillin/streptomycin. Bovine smooth muscle cells (SMC) are isolated from bovine aorta by the method of Ross, R., J Cell Biol (1971) 172-186. SMC from passage 3-10 are plated at 350-700 cells per well in 96-well microtiter plates in the medium above and allowed to attach for 2-4 hr. The complete medium is then replaced with DMEM supplemented with 0.1% fetal calf serum, and the cells are incubated for an additional period of about 24 to 72 hr to arrest cell growth. The low-serum medium is then replaced with complete medium containing the test samples. The sulfated maltose oligosaccharides of the invention were added to the medium to make final concentrations as shown in the figures. The effects of heparin at the same concentrations were also determined.
# The cells are allowed to grow for up to 7 days with replicate plates sampled at regular intervals. Cell number is determined by removing the medium and washing the cells with phosphate-buffered saline, adding 75-150 ul lysis buffer, and assaying for lactate dehydrogenase (LDH) activity, as described by Brandley, B., et at., J Biol Chem (1987) 262:6431. The activity of LDH is proportional to cell number.
# [5] = test system: basic fibroblast growth factor; conditions: literature; result in words; cited from earlier work
# [6] = test system: chicken chorioallantoic membrane (CAM); test: Chicken chorioallantoic membrane (CAM) assay, angiostatic activity; assay type: in vivo
# Excerpt: Compositions that stimulate or inhibit angiogenesis can be identified using several assays known in the art. The chick chorioallantoic membrane (CAM) assay is commonly used. Using the CAM assay, certain heparinoids inhibit angiogenesis when administered with certain steroids. Folkman and Ingber, Ann, Surg. (1987) 206:374, Folkman et at., Science (1983) 221:719.
# Compositions that stimulate or inhibit angiogenesis can be identified using several assays known in the art. Highly sulfated maltotetraose, Composition 5, Table 2, was tested for angiogenesis activity using the chicken chorioallantoic membrane (CAM) assay. The assay was performed as described by Castellot et. at., J. of Cellular Physiology (1986) 127: 323-329, with the exception that samples were evaluated for their efficacy to inhibit neovascularization. Carboxy methyl cellulose pellets containing 50 ug of hydrocortisone, or hydrocortisone plus different amounts of highly sulfated maltotetraose were incubated on the CAM for 3-4 days before scoring the results. Highly sulfated maltotetraose was produced as described in Example 2. Angiostatic activity is defined as a partial clearing or an avascular zone around the pellet. […]
# [7] = test system: adrenocortical endothelial (ACE) cell line; test: Inhibition of bFGF-dependent adrenocortical endothelial (ACE) cell proliferation; assay type: cell-based; conditions: 2 ng/ml bFGF, four days, result in words, FIGS. 2 and 4
# Procedure: The capacity of the sulfated maltohexaoses to inhibit the proliferation of a bFGF-dependent adrenocortical endothelial (ACE) cell line was determined. This cell line (provided by D. Gospodarowicz, UCSF) requires either aFGF or bFGF for a proliferative response. Cells were seeded at low density in microtiter wells in the presence of 2 ng/ml bFGF, and growth was determined as total protein after four days in the presence of the sulfated maltohexaoses.
# [8] = test system: MDA231; test: MDA231 mammary adenocarcinoma tumor growth in nude mice; assay type: in vivo, human tumor in nude mouse; conditions: for MDA231 tumor growth inhibition: result in words
# Procedure: (§1) Experiments were conducted to test the efficacy of highly sulfated maltotetraose, Composition 5, Table 2, on tumor growth in an animal model system, the nude mouse. The growth of human tumors in the nude mouse has clinical relevance to the growth of tumors in humans.
# (§2) Three human tumor cell lines were utilized, the mammary adenocarcinoma, MDA231, the pancreatic tumor cell line, CAPAN-2, and the prostatic adenocarcinoma cell line, PC-3. All cell lines are available from the American Type Culture Collection, and grow aggressively in nude mice. The experiments were conducted as follows: female, 15-20 gram nude mice, in groups of ten, were inoculated subcutaneously with 3-5×10^6 viable MDA231, CAPAN-2, or PC-3 cells in 0.1 ml PBS. The cells were grown in standard DMEM tissue culture media supplemented with 10% fetal calf serum in a humidified 5% CO2 incubator at 37° C. The cells were harvested with trypsin-EDTA, washed 2× with PBS, resuspended at a concentration of 3-5×10^7 cells/ml, and placed on ice prior to injection.
# On a dally basis, the mice were subcutaneously injected with 100 mg/kg of highly sulfated maltotetraose made up in PBS, and produced as described in Example 2. The composition was filter sterilized with a 0.2 um Gelman filter unit.
# (§3) Tumor volume was determined using the following formula: [formula]
# Control mice were injected with PBS vehicle only. Experimental and control mice were injected twice daily with 0.05 ml of the appropriate solution starting on days 0-40 post tumor challenge. From days 41-70 the animals were dosed once daily with 100 mg/kg/day in a volume of 0.1 ml per injection, and tumor volume measured at defined times using standard methods.
# [9] = test system: CAPAN-2; test: CAPAN-2 pancreatic tumor growth in nude mice; assay type: in vivo, human tumor in nude mouse; conditions: dosed once daily from day 0; result in words
# Procedure: as §1
# as §2, with “injection. […]” for “injection.”
# as §3
# The effects of highly satfated maltotetraose on CAPAN-2 tumor cell growth were determined using the materials and methods set forth above with the following exceptions. […]
# [10] = test system: PC-3; test: PC-3 prostatic adenocarcinoma tumor growth in nude mice; assay type: in vivo, human tumor in nude mouse; conditions: 80 mg/kg/day subcutaneous, 23 days, all time points tested; result in words
# Procedure: as §1, §2
# […] The composition was filter sterilized with a 0.2 um Gelman filter unit.
# as §3
# Finally, the effects of highly sulfated maltotetraose on the human prostatic adenocarcinoma line, PC-3, was determined. This cell line is also available from the American Type Culture Collection. […]
# [11] = test system: heparanase; test: Heparanase inhibition, rat hepatoma cell heparanase; assay type: biochemical
# Procedure: Highly sulfated maltotetraose, Composition 5, Table 2, maltoheptaose and maltose were tested for heparanase inhibitory activity using heparanase from a rat hepatoma cell line. […] Further, their inhibitory activities were compared to porcine mucosal heparin. […] The following procedures and materials were used. Confluent rat hepatoma cell cultures were grown in standard cell culture flasks, and washed 3 times with 10 ml of a 50 mM Hepes solution containing 0.25M sucrose and 0.14M NaCl, pH 7.4. Next, 1 ml of a 50 mM MES buffer, pH 5.2, containing 0.14M NaCl, 6 mM sodium azide, and certain protease inhibitors was added and the cells removed from the flask using a disposable cell scraper. The following protease inhibitors were present in the MES buffer: 0.2 ug/ml aprotinin, 0.5 ug/ml leupeptin, 100 ug/ml soybean trypsin inhibitor, 1 mM PMSF, 2 mM EDTA (sodium salt), and 15 mM D-saccharic acid 1,4 lactone (exoglucuronidase inhibitor).
# The cells were added to a 7 ml Dounce homogenizer, freezed/thawed 3 times in an ethanol/dry ice bath, and homogenized with 15 strokes using a tight pestle. The resulting cell lysates were placed in a 2 ml centrifuge tube and centrifuged at 4° C. for 30 minutes at 16,000×g. The supernatant was removed, and the protein concentration in the supernatant determined using the Macro BCA protein assay. BSA was used as a standard. Heparanase activity was quantified by measuring soluble N-^3 H-acetylated pancreas heparan sulfate fragments derived from uncleaved N-^3 H-acetylated pancreas heparan sulfate distinguishable by cetylpyridinium chloride (CPC) precipitation. […] The following procedures were used.
# Next, 10 ul of distilled water containing various concentrations of porcine mucosal heparin, or the appropriate highly sulfated maltooligosaccharide, was added. Then, 30 ul of rat hepatoma cell supernatant, isolated as described above, containing 7.5-10 ug of protein in 50mM MES buffer, pH 5.2, containing 0.14M NaCl, 6mM sodium azide and the protease inhibitors described above, is added to siliconized 1.5 ml microcentrifuge tubes. Three to six replicates were run for each concentration of highly sulfated maltotetraose while three replicates were run for each concentration of porcine mucosal heparin. Controls were run to account for background counts.
# The enzyme substrate inhibitor mixture was mixed, after which the tubes were incubated at 37° C. for 20 minutes. After 20 minutes, the reaction was stopped by adding to the reaction tubes 150 ul of an aqueous heparin solution (0.33 mg/ml). 200 ul of 100 mM sodium acetate pH 5.5 and 100 ul of CPC (0.6% in water) were then added. Three replicates maintained on ice were run as background controls (0 min.) in which the enzyme was added to the tubes immediately followed by heparin to terminate the reaction. […]
# [12] = hydrocortisone 50 ug/pellet alone, 24 hr
# [13] = listed as highly sulfated maltose
# [14] = listed as highly sulfated maltotriose
compound,measurement,setting,value
dermatan sulfate,inhibition of pericyte and/or smooth muscle cell proliferation,[1],do not have this effect
chondroitin sulfate,inhibition of pericyte and/or smooth muscle cell proliferation,[1],do not have this effect
heparan sulfate,vascular proliferation associated with injury,[2],slow or arrest the vascular proliferation
heparin,inhibition of binding of RO-12 UC cells to bFGF coated wells,[3],inhibits RO-12 UC cell binding
same,concentration that gave 100% inhibition of SMC proliferation,[4]; heparin reference,150 µg/mL
same,inhibition of pericyte and/or smooth muscle cell proliferation,[1],inhibitor of both pericyte and smooth muscle cell proliferation
same,binding to basic fibroblast growth factor,[5],binds heparin quite strongly in vitro
same,vascular proliferation associated with injury,[2],slow or arrest the vascular proliferation
"C[C@]12CCC(=O)C=C1CC[C@@H]1[C@@H]2[C@@H](O)C[C@@]2(C)[C@H]1CC[C@]2(O)C(=O)CO [Hydrocortisone, hydrocortisone]","number of embryos scored, NO EFFECT",[6]; [12],27 embryos
same,"number of embryos scored, avascular zone (++)",[6]; [12],0 embryos
same,"number of embryos scored, partial clearing (+)",[6]; [12],2 embryos
highly sulfated maltopentaose [Composition 6],inhibition of binding of RO-12 UC cells to bFGF coated wells,[3],significant activity
same,inhibition of adrenocortical endothelial cell proliferation,[7],significant activity
same,"inhibition of SMC growth, per cent of heparin inhibition",[4]; about 50 ug/ml,100%
same,inhibition of SMC growth (anti-proliferative activity),[4]; result in words,more effective in inhibiting SMC proliferation than the smaller-sized sulfated maltotetraose
highly sulfated maltotetraose [Composition 5],inhibition of binding of RO-12 UC cells to bFGF coated wells,[3],significant activity
same,inhibition of adrenocortical endothelial cell proliferation,[7],significant activity
same,MDA231 tumor growth inhibition,[8]; 100 mg/kg subcutaneous,tumor growth is significantly inhibited
same,time at which inhibition is first apparent,"[8]; MDA231, about",36 to 37 days
same,tumor volume,"[8]; MDA231, days 68-69, control about 375 mm^3",~125 mm^3
same,MDA231 tumor growth inhibition,[8]; by days 68-69,dramatic
same,CAPAN-2 tumor growth inhibition,[9],significantly inhibits tumor growth
same,PC-3 growth inhibition,[10],inhibited PC-3 cell growth at all the time points tested
same,inhibition of SMC growth,"[4]; 150 ug/ml, result in words",one hundred per cent inhibition was not observed
same,"inhibition of SMC growth, per cent of heparin inhibition",[4]; about 60 ug/ml,about 50%
same,inhibition of SMC growth (anti-proliferative activity),[4]; result in words,"significant anti-proliferative effects, although not as great as heparin"
same,angiostatic activity,"[6]; HSM alone, without hydrocortisone, result in words",inactive
same,heparanase IC50,"[11]; rat hepatoma heparanase, pH 5.2, 37° C., 20 minutes",9.0 µg/mL
same,heparanase inhibition relative to porcine mucosal heparin,"[11]; result in words, FIG. 11",approximately one half as effective as porcine mucosal heparin
highly sulfated maltoheptaose [Composition 7],inhibition of binding of RO-12 UC cells to bFGF coated wells,[3],significant activity
same,inhibition of adrenocortical endothelial cell proliferation,[7],significant activity
same,heparanase inhibition,[11]; result in words,as active as heparin
highly sulfated maltose [Composition 9],inhibition of binding of RO-12 UC cells to bFGF coated wells,[3],little or no activity relative to the highly sulfated maltotetraose composition
same,inhibition of binding of RO-12 UC cells to bFGF coated wells,[3]; [13],less active
same,inhibition of adrenocortical endothelial cell proliferation,[7],little or no activity relative to the highly sulfated maltotetraose composition
same,inhibition of adrenocortical endothelial cell proliferation,[7]; [13],less active
same,heparanase inhibition,"[11]; at greater than 200 ug/ml, result in words",no activity
highly sulfated maltotriose [Composition 8],inhibition of binding of RO-12 UC cells to bFGF coated wells,[3]; [14],less active
same,inhibition of binding of RO-12 UC cells to bFGF coated wells,[3]; listed as sulfated maltotriose,little or no activity
same,inhibition of adrenocortical endothelial cell proliferation,[7]; [14],less active
same,inhibition of adrenocortical endothelial cell proliferation,[7]; listed as sulfated maltotriose,little or no activity
